Results reported in ChEMBL document CHEMBL3045502, “Microwave-assisted synthesis of some new tetrazolo[1,5-a]quinoline-based benzimidazoles catalyzed by p-TsOH and investigation of their antimicrobial activity” (2011).
In brackets after ≈: the same amount, converted by molar mass.

Assays:
Assay type in all cases: functional
Vibrio cholerae = experiment: Antimicrobial activity against Vibrio cholerae MTCC 3906 after 24 to 48 hr by broth microdilution method
[1] = (§1) Antimicrobial activity against Salmonella enterica subsp. enterica serovar Typhi MTCC 98 after 24 to 48 hr by broth microdilution method
Clostridium tetani = experiment: Antimicrobial activity against Clostridium tetani MTCC 449 after 24 to 48 hr by broth microdilution method
Escherichia coli = experiment: Antimicrobial activity against Escherichia coli MTCC 443 after 24 to 48 hr by broth microdilution method
Streptococcus pneumoniae = experiment: Antimicrobial activity against Streptococcus pneumoniae MTCC 1936 after 24 to 48 hr by broth microdilution method
Bacillus subtilis = experiment: Antimicrobial activity against Bacillus subtilis MTCC 441 after 24 to 48 hr by broth microdilution method
Aspergillus fumigatus = experiment: Antimicrobial activity against Aspergillus fumigatus MTCC 3008 after 24 to 48 hr by broth microdilution method
Salmonella typhimurium = experiment: as §1
Candida albicans = experiment: Antimicrobial activity against Candida albicans MTCC 227 after 24 to 48 hr by broth microdilution method

GENTAMICIN
MIC (Vibrio cholerae): 5 µg/mL | MIC [1]: 5 µg/mL | MIC (Clostridium tetani): 5 µg/mL | MIC (Escherichia coli): 0.05 µg/mL | MIC (Streptococcus pneumoniae): 0.5 µg/mL | MIC (Bacillus subtilis): 1 µg/mL

Brc1ccc2[nH]c(-c3cc4ccccc4n4nnnc34)nc2c1
MIC (Aspergillus fumigatus): 1000 µg/mL (≈ 2740 µM) | MIC (Vibrio cholerae): 250 µg/mL (≈ 685 µM) | MIC (Salmonella typhimurium): 100 µg/mL (≈ 274 µM) | MIC (Clostridium tetani): 250 µg/mL (≈ 685 µM) | MIC (Escherichia coli): 100 µg/mL (≈ 274 µM) | MIC (Streptococcus pneumoniae): 250 µg/mL (≈ 685 µM) | MIC (Candida albicans): 1000 µg/mL (≈ 2740 µM) | MIC (Bacillus subtilis): 500 µg/mL (≈ 1370 µM)

COc1ccc2c(c1)cc(-c1nc3cc(Cl)ccc3[nH]1)c1nnnn12
MIC (Aspergillus fumigatus): 500 µg/mL (≈ 1430 µM) | MIC (Vibrio cholerae): 500 µg/mL (≈ 1430 µM) | MIC (Salmonella typhimurium): 500 µg/mL (≈ 1430 µM) | MIC (Clostridium tetani): 500 µg/mL (≈ 1430 µM) | MIC (Escherichia coli): 500 µg/mL (≈ 1430 µM) | MIC (Streptococcus pneumoniae): 500 µg/mL (≈ 1430 µM) | MIC (Candida albicans): 250 µg/mL (≈ 713 µM) | MIC (Bacillus subtilis): 125 µg/mL (≈ 356 µM)

Clc1ccc2c(c1)cc(-c1nc3cc(Cl)ccc3[nH]1)c1nnnn12
MIC (Aspergillus fumigatus): > 1000 µg/mL | MIC (Vibrio cholerae): 500 µg/mL (≈ 1410 µM) | MIC (Salmonella typhimurium): 500 µg/mL (≈ 1410 µM) | MIC (Clostridium tetani): 250 µg/mL (≈ 704 µM) | MIC (Escherichia coli): 125 µg/mL (≈ 352 µM) | MIC (Streptococcus pneumoniae): 250 µg/mL (≈ 704 µM) | MIC (Candida albicans): 1000 µg/mL (≈ 2820 µM) | MIC (Bacillus subtilis): 125 µg/mL (≈ 352 µM)

O=C(O)c1cn(C2CC2)c2cc(N3CCNCC3)c(F)cc2c1=O [CIPROFLOXACIN]
MIC (Vibrio cholerae): 25 µg/mL (≈ 75.4 µM) | MIC (Salmonella typhimurium): 25 µg/mL (≈ 75.4 µM) | MIC (Escherichia coli): 25 µg/mL (≈ 75.4 µM) | MIC (Streptococcus pneumoniae): 50 µg/mL (≈ 151 µM)

Cc1ccc2c(c1)cc(-c1nc3cc(C)ccc3[nH]1)c1nnnn12
MIC (Aspergillus fumigatus): > 1000 µg/mL | MIC (Vibrio cholerae): 500 µg/mL (≈ 1590 µM) | MIC (Salmonella typhimurium): 1000 µg/mL (≈ 3180 µM) | MIC (Clostridium tetani): 500 µg/mL (≈ 1590 µM) | MIC (Escherichia coli): 250 µg/mL (≈ 795 µM) | MIC (Streptococcus pneumoniae): 500 µg/mL (≈ 1590 µM) | MIC (Candida albicans): 1000 µg/mL (≈ 3180 µM) | MIC (Bacillus subtilis): 500 µg/mL (≈ 1590 µM)

COc1ccc2c(c1)cc(-c1nc3cc(C)ccc3[nH]1)c1nnnn12
MIC (Aspergillus fumigatus): 500 µg/mL (≈ 1510 µM) | MIC (Vibrio cholerae): 500 µg/mL (≈ 1510 µM) | MIC (Salmonella typhimurium): 500 µg/mL (≈ 1510 µM) | MIC (Clostridium tetani): 250 µg/mL (≈ 757 µM) | MIC (Escherichia coli): 500 µg/mL (≈ 1510 µM) | MIC (Streptococcus pneumoniae): 500 µg/mL (≈ 1510 µM) | MIC (Candida albicans): 250 µg/mL (≈ 757 µM) | MIC (Bacillus subtilis): 500 µg/mL (≈ 1510 µM)

Cc1ccc2c(c1)cc(-c1nc3cc(Br)ccc3[nH]1)c1nnnn12
MIC (Aspergillus fumigatus): > 1000 µg/mL | MIC (Vibrio cholerae): 250 µg/mL (≈ 659 µM) | MIC (Salmonella typhimurium): 500 µg/mL (≈ 1320 µM) | MIC (Clostridium tetani): 1000 µg/mL (≈ 2640 µM) | MIC (Escherichia coli): 500 µg/mL (≈ 1320 µM) | MIC (Streptococcus pneumoniae): 250 µg/mL (≈ 659 µM) | MIC (Candida albicans): 1000 µg/mL (≈ 2640 µM) | MIC (Bacillus subtilis): 500 µg/mL (≈ 1320 µM)

Clc1ccc2c(c1)cc(-c1nc3ccccc3[nH]1)c1nnnn12
MIC (Aspergillus fumigatus): 500 µg/mL (≈ 1560 µM) | MIC (Vibrio cholerae): 500 µg/mL (≈ 1560 µM) | MIC (Salmonella typhimurium): 250 µg/mL (≈ 779 µM) | MIC (Clostridium tetani): 250 µg/mL (≈ 779 µM) | MIC (Escherichia coli): 1000 µg/mL (≈ 3120 µM) | MIC (Streptococcus pneumoniae): 500 µg/mL (≈ 1560 µM) | MIC (Candida albicans): 125 µg/mL (≈ 390 µM) | MIC (Bacillus subtilis): 250 µg/mL (≈ 779 µM)

COC1=CC(=O)C[C@@H](C)[C@]12Oc1c(Cl)c(OC)cc(OC)c1C2=O [GRISEOFULVIN]
MIC (Aspergillus fumigatus): 100 µg/mL (≈ 283 µM) | MIC (Candida albicans): 500 µg/mL (≈ 1420 µM)

Cc1ccc2[nH]c(-c3cc4cc(Cl)ccc4n4nnnc34)nc2c1
MIC (Aspergillus fumigatus): > 1000 µg/mL | MIC (Vibrio cholerae): 250 µg/mL (≈ 747 µM) | MIC (Salmonella typhimurium): 500 µg/mL (≈ 1490 µM) | MIC (Clostridium tetani): 500 µg/mL (≈ 1490 µM) | MIC (Escherichia coli): 250 µg/mL (≈ 747 µM) | MIC (Streptococcus pneumoniae): 250 µg/mL (≈ 747 µM) | MIC (Candida albicans): 1000 µg/mL (≈ 2990 µM) | MIC (Bacillus subtilis): 125 µg/mL (≈ 373 µM)

c1ccc2c(c1)cc(-c1nc3ccccc3[nH]1)c1nnnn12
MIC (Aspergillus fumigatus): > 1000 µg/mL | MIC (Vibrio cholerae): 200 µg/mL (≈ 699 µM) | MIC (Salmonella typhimurium): 500 µg/mL (≈ 1750 µM) | MIC (Clostridium tetani): 250 µg/mL (≈ 873 µM) | MIC (Escherichia coli): 500 µg/mL (≈ 1750 µM) | MIC (Streptococcus pneumoniae): 500 µg/mL (≈ 1750 µM) | MIC (Candida albicans): 1000 µg/mL (≈ 3490 µM) | MIC (Bacillus subtilis): 200 µg/mL (≈ 699 µM)

Cc1ccc2[nH]c(-c3cc4ccccc4n4nnnc34)nc2c1
MIC (Aspergillus fumigatus): 1000 µg/mL (≈ 3330 µM) | MIC (Vibrio cholerae): 500 µg/mL (≈ 1660 µM) | MIC (Salmonella typhimurium): 250 µg/mL (≈ 832 µM) | MIC (Clostridium tetani): 500 µg/mL (≈ 1660 µM) | MIC (Escherichia coli): 125 µg/mL (≈ 416 µM) | MIC (Streptococcus pneumoniae): 500 µg/mL (≈ 1660 µM) | MIC (Candida albicans): 500 µg/mL (≈ 1660 µM) | MIC (Bacillus subtilis): 250 µg/mL (≈ 832 µM)

COc1ccc2c(c1)cc(-c1nc3ccccc3[nH]1)c1nnnn12
MIC (Aspergillus fumigatus): 1000 µg/mL (≈ 3160 µM) | MIC (Vibrio cholerae): 250 µg/mL (≈ 790 µM) | MIC (Salmonella typhimurium): 250 µg/mL (≈ 790 µM) | MIC (Clostridium tetani): 500 µg/mL (≈ 1580 µM) | MIC (Escherichia coli): 250 µg/mL (≈ 790 µM) | MIC (Streptococcus pneumoniae): 250 µg/mL (≈ 790 µM) | MIC (Candida albicans): 500 µg/mL (≈ 1580 µM) | MIC (Bacillus subtilis): 250 µg/mL (≈ 790 µM)

Cc1ccc2c(c1)cc(-c1nc3ccccc3[nH]1)c1nnnn12
MIC (Aspergillus fumigatus): 1000 µg/mL (≈ 3330 µM) | MIC (Vibrio cholerae): 250 µg/mL (≈ 832 µM) | MIC (Salmonella typhimurium): 125 µg/mL (≈ 416 µM) | MIC (Clostridium tetani): 200 µg/mL (≈ 666 µM) | MIC (Escherichia coli): 100 µg/mL (≈ 333 µM) | MIC (Streptococcus pneumoniae): 200 µg/mL (≈ 666 µM) | MIC (Candida albicans): 1000 µg/mL (≈ 3330 µM) | MIC (Bacillus subtilis): 100 µg/mL (≈ 333 µM)

NYSTATIN
MIC (Aspergillus fumigatus): 100 µg/mL | MIC (Candida albicans): 100 µg/mL

Clc1ccc2[nH]c(-c3cc4ccccc4n4nnnc34)nc2c1
MIC (Aspergillus fumigatus): 1000 µg/mL (≈ 3120 µM) | MIC (Vibrio cholerae): 500 µg/mL (≈ 1560 µM) | MIC (Salmonella typhimurium): 100 µg/mL (≈ 312 µM) | MIC (Clostridium tetani): 500 µg/mL (≈ 1560 µM) | MIC (Escherichia coli): 250 µg/mL (≈ 779 µM) | MIC (Streptococcus pneumoniae): 500 µg/mL (≈ 1560 µM) | MIC (Candida albicans): 500 µg/mL (≈ 1560 µM) | MIC (Bacillus subtilis): 500 µg/mL (≈ 1560 µM)

CC1(C)S[C@@H]2[C@H](NC(=O)[C@H](N)c3ccccc3)C(=O)N2[C@H]1C(=O)O [AMPICILLIN]
MIC (Vibrio cholerae): 100 µg/mL (≈ 286 µM) | MIC (Salmonella typhimurium): 100 µg/mL (≈ 286 µM) | MIC (Clostridium tetani): 250 µg/mL (≈ 715 µM) | MIC (Escherichia coli): 100 µg/mL (≈ 286 µM) | MIC (Streptococcus pneumoniae): 100 µg/mL (≈ 286 µM) | MIC (Bacillus subtilis): 250 µg/mL (≈ 715 µM)

CCn1cc(C(=O)O)c(=O)c2cc(F)c(N3CCNCC3)cc21 [NORFLOXACIN]
MIC (Vibrio cholerae): 10 µg/mL (≈ 31.3 µM) | MIC (Salmonella typhimurium): 10 µg/mL (≈ 31.3 µM) | MIC (Clostridium tetani): 50 µg/mL (≈ 157 µM) | MIC (Escherichia coli): 10 µg/mL (≈ 31.3 µM) | MIC (Streptococcus pneumoniae): 10 µg/mL (≈ 31.3 µM) | MIC (Bacillus subtilis): 100 µg/mL (≈ 313 µM)

COc1ccc2c(c1)cc(-c1nc3cc(Br)ccc3[nH]1)c1nnnn12
MIC (Aspergillus fumigatus): 1000 µg/mL (≈ 2530 µM) | MIC (Vibrio cholerae): 500 µg/mL (≈ 1270 µM) | MIC (Salmonella typhimurium): 500 µg/mL (≈ 1270 µM) | MIC (Clostridium tetani): 250 µg/mL (≈ 633 µM) | MIC (Escherichia coli): 500 µg/mL (≈ 1270 µM) | MIC (Streptococcus pneumoniae): 1000 µg/mL (≈ 2530 µM) | MIC (Candida albicans): 1000 µg/mL (≈ 2530 µM) | MIC (Bacillus subtilis): 500 µg/mL (≈ 1270 µM)

Cc1ccc2c(c1)cc(-c1nc3cc(Cl)ccc3[nH]1)c1nnnn12
MIC (Aspergillus fumigatus): > 1000 µg/mL | MIC (Vibrio cholerae): 500 µg/mL (≈ 1490 µM) | MIC (Salmonella typhimurium): 500 µg/mL (≈ 1490 µM) | MIC (Clostridium tetani): 500 µg/mL (≈ 1490 µM) | MIC (Escherichia coli): 250 µg/mL (≈ 747 µM) | MIC (Streptococcus pneumoniae): 500 µg/mL (≈ 1490 µM) | MIC (Candida albicans): 1000 µg/mL (≈ 2990 µM) | MIC (Bacillus subtilis): 500 µg/mL (≈ 1490 µM)

Clc1ccc2c(c1)cc(-c1nc3cc(Br)ccc3[nH]1)c1nnnn12
MIC (Aspergillus fumigatus): > 1000 µg/mL | MIC (Vibrio cholerae): 500 µg/mL (≈ 1250 µM) | MIC (Salmonella typhimurium): 250 µg/mL (≈ 626 µM) | MIC (Clostridium tetani): 500 µg/mL (≈ 1250 µM) | MIC (Escherichia coli): 250 µg/mL (≈ 626 µM) | MIC (Streptococcus pneumoniae): 500 µg/mL (≈ 1250 µM) | MIC (Candida albicans): 1000 µg/mL (≈ 2500 µM) | MIC (Bacillus subtilis): 250 µg/mL (≈ 626 µM)

O=C(N[C@H](CO)[C@H](O)c1ccc([N+](=O)[O-])cc1)C(Cl)Cl [CHLORAMPHENICOL]
MIC (Vibrio cholerae): 50 µg/mL (≈ 155 µM) | MIC (Salmonella typhimurium): 50 µg/mL (≈ 155 µM) | MIC (Clostridium tetani): 50 µg/mL (≈ 155 µM) | MIC (Escherichia coli): 50 µg/mL (≈ 155 µM) | MIC (Streptococcus pneumoniae): 50 µg/mL (≈ 155 µM) | MIC (Bacillus subtilis): 50 µg/mL (≈ 155 µM)
